According to patent publication US20250186536A1, “SUSTAINED RELEASE PEPTIDE FORMULATIONS” (RHYTHM PHARMACEUTICALS, INC., priority 2017, published 2025):

Tests used:
[1] = Part B multiple-dose pharmacokinetics (once weekly for 4 weeks) in obese subjects; assay type: in vivo, human
Experimental: (§1) In order to assess the pharmacokinetics of setmelanotide, a two part study was carried out comprising single dose administration (Part A) and multiple dose administration (Part B) with healthy obese subjects.
(§2) Part A was a rising-dose, placebo-controlled study including up to 3 sequential panels. For each panel, 10 normal obese subjects in good health between the ages of 21 and 54 were assigned to randomly-ordered treatments which included 8 active and 2 placebo treatments. Data acquired from Part A were used to determine the dose and dosing regimen for Part B. In Part B, 12 normal healthy obese patients were randomly assigned to receive either 6 active and 6 placebo treatments. Subjects received once weekly subcutaneous injection of the assigned formulation for 4 weeks. Patients in Part B were housed in the clinical unit for the 28 days.
(§3) Setmelanotide was formulated in a sterile liquid polar lipid phase consisting of soy phosphatidylcholine, glycerol dioleate, ethanol and citrate buffer. Without being bound by theory, the setmelanotide formulation behaves in a long-acting fashion, wherein when injected subcutaneously, aqueous body fluid is absorbed by the lipid phase to form a gel like depot consisting of liquid crystals formed in situ.
Twelve (12) obese subjects were enrolled in Part B; 6 received active drug, and 6 were given placebo. Based on results from Part A, setmelanotide 10 mg once weekly was selected as the dose for Part B. Subjects were housed in the clinical facility for the entire 4 weeks of study. Qualified subjects entered the clinical facility the evening before the first dose. Subjects assigned to active treatment received setmelanotide 10 mg subcutaneously in the morning on Day 1. Placebo subjects received the same volume of the placebo injection as the active treatment. Subjects were fasting from the evening before to 4 hours after dosing. Standard lowfat meals were served. Subjects were also dosed on Days 8, 15, and 22 with the treatment given on Day 1.
Blood samples were collected at a time before dosing and at 0.5, 1, 2, 3, 4, 6, 8, 10, 12, 16, 24, 30, 36, 48, 60, 72, 96, 120, 168, 240, and 336 hours during Week 1 and during Week 4. The actual sampling times were recorded. In addition, blood samples were collected at a time just before dosing for trough setmelanotide concentrations for evaluating the attainment of steady state.

[2] = Part A single-dose pharmacokinetics of long-acting setmelanotide formulation in healthy obese subjects; assay type: in vivo, human; settings: for AUC(0-inf) / Cmax / Tmax / half-life: human, plasma; for Tmax: read-out: median tmax
Experimental: as §1, §2, §3
10 normal obese subjects enrolled for each dose level of Part A; 8 received active drug, and 2 received placebo. There were 3 dose levels used in the single dose phase which were administered according to the sequential, rising dose design. The single setmelanotide doses administered were in sequence: 2.5 mg, 10 mg, and 30 mg. Setmelanotide concentrations were analyzed and safety was assessed before the next higher dose level was started. The drug was administered subcutaneously on the morning of dosing. Blood samples were collected prior to dosing and at 0.5, 1, 2, 3, 4, 6, 8, 10, 12, 16, 24, 30, and 36 hours post-dose (in the clinic), then at approximately 48, 60, 72, 96, 120, 168, 240, and 336 hours post-dose as outpatients. Based on the PK analysis of the first dose, additional blood samples were included for the 30 mg dose at 21 ([…]) and 28 ([…]) days post-dose. The actual times of blood collection were recorded.

[3] = Stability analysis of setmelanotide formulations (degradation by HPLC); assay type: physicochemical
Experimental: Components of exemplary setmelanotide formulations were varied in order to assess their impact on the stability of setmelanotide over time. In a first study, setmelanotide formulations were prepared as described in Example 2 with 30 mg/mL setmelanotide using different forms of GDO: 1) GDO of commercial purity; 2) GDO of commercial purity, which has been further purified to remove fatty acid compounds; and 3) synthetic GDO. The formulations were stored in 1 mL glass syringes equipped with staked stainless steel […] and rubber plungers at 40° C. for up to three months.
The effect of EDTA concentration on setmelanotide degradation was also investigated in a second study. Syringes containing setmelanotide formulations with higher EDTA along with GDO of varying sources were prepared, and setmelanotide degradation was quantified by HPLC over time. The results of this study are depicted in FIG. 6, and indicate that higher concentrations of EDTA have a small effect on setmelanotide stability in the presence of either GDO of commercial purity or synthetic GDO.
In a third study, the effect of setmelanotide and EDTA concentrations were explored in the presence of synthetic GDO.

[4] = 10 mg SC once weekly for 4 weeks

For `CC(=O)N[C@@H](CCCNC(=N)N)C(=O)N[C@H]1CSSC[C@@H](C(N)=O)NC(=O)[C@H](Cc2c[nH]c3ccccc23)NC(=O)[C@H](CCCNC(=N)N)NC(=O)[C@@H](Cc2ccccc2)NC(=O)[C@H](Cc2c[nH]cn2)NC(=O)[C@@H](C)NC1=O` [setmelanotide], the accumulation index [1, 4] was 1.46, the lag in absorption [1, 4] was “no lag in absorption” and the “attainment of steady state (trough concentrations, visual inspection)” value ([1]; 10 mg SC once weekly, 4 weekly doses) was “attained during Week 4”. For the same molecule, the Cmax ([1]; human, plasma, 10 mg SC once weekly for 4 weeks) was 0.0114 µg/mL, the level at 168 h ([1]; human, plasma, 10 mg SC once weekly for 4 weeks, end of 1-week dosing interval, read-out: mean concentration at 168 hours) was 0.00292 µg/mL and the Tmax ([1]; human, plasma, 10 mg SC once weekly for 4 weeks, read-out: median tmax) was 4 h. The “dose proportionality of AUC∞” value ([2]; 2.5 mg dose) was “less than proportional”, the “dose proportionality of AUC” value ([2]; 10 mg and 30 mg doses) was “proportional” and the “dose proportionality of Cmax” value ([2]; 2.5 to 30 mg dose range) was “roughly proportional”. For the same molecule, the AUC(0-inf) ([2]; single SC dose 2.5 mg) was 0.0929 µg·h/mL, the Cmax ([2]; single SC dose 2.5 mg) was 0.00292 µg/mL and the Tmax ([2]; single SC dose 2.5 mg) was 3.5 h. The AUC(0-inf) ([2]; single SC dose 10 mg) was 1.14 µg·h/mL, the Cmax ([2]; single SC dose 10 mg) was 0.0115 µg/mL and the half-life ([2]; single SC dose 10 mg) was 123 h. The Tmax ([2]; single SC dose 10 mg) was 4 h, the AUC(0-inf) ([2]; single SC dose 30 mg) was 3.47 µg·h/mL and the Cmax ([2]; single SC dose 30 mg) was 0.0341 µg/mL. The half-life ([2]; single SC dose 30 mg) was 159 h, the Tmax ([2]; single SC dose 30 mg) was 6 h and the “time by which all values were below quantifiable” value ([2]; single SC dose 2.5 mg) was at most 96 h. For the same molecule, the “time past which profile was defined” value ([2]; single SC dose 10 mg) was over 168 h, the “time past which profile was defined” value ([2]; single SC dose 30 mg) was over 168 h and the “earliest plasma sample time in which setmelanotide appeared” value ([2]; single SC dose, generally) was 0.5 h. For the same molecule, the “time measurable in plasma after dosing” value ([2]; single SC dose, generally) was at least 2 weeks, the “time to maximum concentrations after dosing” value ([2]; single SC dose, generally over the three dose levels) was “about 4 hours” and the “early burst effect or dose dumping” value ([2]; single dose administration) was “no early burst effect or dose dumping”. The lag-time of absorption ([2]; single dose administration) was “little to no lag-time”, the setmelanotide degradation ([3]; 15 mg/mL formulations compared with 30 mg/mL formulations, synthetic GDO) was “higher levels of degradation” and the setmelanotide degradation ([3]; 30 mg/mL formulation prepared with synthetic GDO vs GDO of commercial purity or further purified, 40° C. up to three months, HPLC) was “lower amount”. For the same molecule, the “effect of higher EDTA concentration on setmelanotide stability” value ([3]; GDO of commercial purity or synthetic GDO, HPLC over time) was “small effect” and the “effect of increasing EDTA concentration on degradation” value ([3]; as setmelanotide concentration decreases, synthetic GDO) was “greater effect”.
